According to publication PMC9295786, “Discovery of potent BET bromodomain 1 stereoselective inhibitors using DNA-encoded chemical library selections” (Proceedings of the National Academy of Sciences of the …, 2022):
Several values for one entry are separate records, joined by “and”; a condition that tells them apart may be missing. Identical values can stand only once. Like-named read-outs stand apart in the source and are kept apart here.

Key:
[1] = target: T1, BRDT-BD2 (Homo sapiens, UniProt Q58F21); experiment: AlphaScreen competition assay with biotinylated JQ1; format: binding
T1 construct: two similar tandem bromodomains (BD1 and BD2); made in house; host or cells: bacteria (pET15b or pET28b vector)

[2] = target: T2, BRD4-BD2 (Homo sapiens, UniProt O60885); experiment: as above; format: binding; details: read-out: BRD4-BD2 IC50
T2 construct: two similar tandem bromodomains (BD1 and BD2); made in house; host or cells: bacteria (pET15b or pET28b vector)

[3] = target: BRD4-BD1 (Homo sapiens, UniProt O60885); experiment: as above; format: binding; set-up: the bromodomain 1 (BD1) of BRD4; made in house; host or cells: bacteria (pET15b or pET28b vector); details: for IC50: read-out: BRD4-BD1 IC50; for BRD4-BD1 vs. BRD4-BD2 fold (BRD4-BD1 selectivity): ratio of AlphaScreen IC50 values, NE = not efficient
[4] = target: BRDT-BD1 (Homo sapiens, UniProt Q58F21); experiment: as above; format: binding; set-up: the first bromodomain of BRDT (BRDT-BD1); made in house; host or cells: bacteria (pET15b or pET28b vector); details: for BRDT-BD1 vs. BRDT-BD2 fold (BRDT-BD1 selectivity): ratio of AlphaScreen IC50 values, NE = not efficient
[5] = tested on: BD2; set-up: method as in PMID 24391744; details: cited from earlier work
[6] = tested on: MV4;11 cells; experiment: Cell viability by CellTiterGlo; format: cell-based; details: for IC50: 72 h of treatment, CellTiterGlo, normalized to DMSO, read-out: Viability IC50 MV4;11; for EC50: Table S6, NE = not efficient, read-out: MV4-11 EC50 (viability)
[7] = tested on: MOLM-13 cells; experiment: Cell viability by CellTiterGlo; format: cell-based; details: 72 h of treatment, CellTiterGlo, normalized to DMSO, read-out: Viability IC50 MOLM-13
[8] = tested on: THP1 cells; experiment: Cell viability by CellTiterGlo; format: cell-based; details: 72 h of treatment, CellTiterGlo, normalized to DMSO, read-out: Viability IC50 THP1
[9] = tested on: Kasumi1 cells; experiment: Cell viability by CellTiterGlo; format: cell-based; details: 72 h of treatment, CellTiterGlo, normalized to DMSO, read-out: Viability IC50 Kasumi1
[10] = Metabolic stability assay in liver microsomes (MLM); format: in vitro ADME; details: mouse liver microsomes 0.5 mg protein/mL, compound 2.0 μM, NADPH 1.0 mM; read-out: MLM t1/2 (half-life)
[11] = Metabolic stability assay in liver microsomes (HLM); format: in vitro ADME; details: human liver microsomes 0.5 mg protein/mL, compound 2.0 μM, NADPH 1.0 mM; read-out: HLM t1/2 (half-life)
[12] = tested on: MV4;11 cells; experiment: Cell cycle analysis by flow cytometry; format: cell-based; details: 24 h of treatment at the IC50
[13] = tested on: MV4;11 cells; experiment: Apoptosis detection (Annexin V) by flow cytometry; format: cell-based; details: 72 h of treatment
[14] = tested on: MOLM-13 cells; experiment: Apoptosis detection (Annexin V) by flow cytometry; format: cell-based; details: 72 h of treatment
[15] = tested on: MYC expression in MOLM-13 cells; experiment: MYC expression by RT-qPCR; format: cell-based; details: 8 h of treatment
[16] = tested on: MYC expression in MV4;11 cells; experiment: MYC expression by RT-qPCR; format: cell-based; details: 8 h of treatment
[17] = AlphaScreen, biotinylated JQ1 10 nM, His-bromodomain 10 nM, NE = not efficient, read-out: BRDT-BD2 IC50
[18] = AlphaScreen, biotinylated JQ1 10 nM, His-bromodomain 10 nM, NE = not efficient
[19] = AlphaScreen, biotinylated JQ1 10 nM, His-bromodomain 10 nM

CNC(=O)C(CC1CCN(C(=O)Cc2ccc3[nH]c(=O)cc(C)c3c2)CC1)NC(=O)c1ccccn1 (stereo not drawn) [CDD-784]
IC50 [1, 17]: 19400 nM | IC50 [2, 18]: 32600 nM | IC50 [3, 19]: 15.7 nM | BRD4-BD1 vs. BRD4-BD2 fold (BRD4-BD1 selectivity) [3]: 2,078 fold | IC50 [4, 19]: 20.2 nM | BRDT-BD1 vs. BRDT-BD2 fold (BRDT-BD1 selectivity) [4]: 960 fold

Cc1ccc(-c2ccc(C(=O)NC(C)CC3CCN(C(=O)Cc4ccc5[nH]c(=O)cc(C)c5c4)CC3)nc2)c(C)c1 (stereo not drawn) [CDD-906]
IC50 [1, 17]: 23400 nM | IC50 [2, 18]: 20000 nM | IC50 [3, 19]: 52.4 nM | BRD4-BD1 vs. BRD4-BD2 fold (BRD4-BD1 selectivity) [3]: 381 fold | fold loss of selectivity on BRDT-BD1 ([4]; AlphaScreen): 6.5 fold | IC50 [4, 19]: 31 nM | BRDT-BD1 vs. BRDT-BD2 fold (BRDT-BD1 selectivity) [4]: 756 fold

Cc1cc(=O)[nH]c2ccc(CC(=O)N3CCN(CCNC(=O)c4ccccn4)CC3)cc12 [CDD-778]
IC50 [1, 17]: 71800 nM | IC50 [3, 19]: 1300 nM | IC50 [4, 19]: 5200 nM | BRDT-BD1 vs. BRDT-BD2 fold (BRDT-BD1 selectivity) [4]: 13.8 fold

Cc1cc(=O)[nH]c2ccc(CC(=O)N3CCC(CCNC(=O)c4ccccc4)CC3)cc12 [CDD-779]
IC50 ([1]; read-out: BRDT-BD2 IC50): 10400 nM | IC50 [3]: 47.9 nM | IC50 [4]: 148 nM | BRDT-BD1 vs. BRDT-BD2 fold (BRDT-BD1 selectivity) [4]: 70 fold

Cc1ccc(-c2ccc(C(=O)NCCC3CCN(C(=O)Cc4ccc5[nH]c(=O)cc(C)c5c4)CC3)nc2)c(C)c1 [CDD-813]
IC50 ([1]; read-out: BRDT-BD2 IC50): 67800 nM | IC50 [2]: 8690 nM | BRD4-BD1 vs. BRD4-BD2 fold (BRD4-BD1 selectivity) [3]: 312 fold | IC50 [3]: 27.8 nM | IC50 [4]: 33.7 nM | BRDT-BD1 vs. BRDT-BD2 fold (BRDT-BD1 selectivity) [4]: 2012 fold

Cc1cc(=O)[nH]c2ccc(CC(=O)N3CCC(CCNC(=O)c4ccc5ccccc5n4)CC3)cc12 [CDD-855]
IC50 [3, 19]: 122 nM | IC50 [4, 19]: 81.3 nM

COc1cc(OC)c2c(=O)[nH]c(-c3cc(C)c(OCCO)c(C)c3)nc2c1 [RVX-208]
IC50 ([1]; AlphaScreen, read-out: IC50 in our BRDT-BD2 AlphaScreen assay): 2000 nM | selectivity over BD1 domains ([5]; BD2 over BD1): ~10 fold | BD2 potency [5]: > 100 nM

Cc1cc(=O)[nH]c2ccc(CC(=O)N3CCC(CCNC(=O)c4nccc5ccccc45)CC3)cc12 [CDD-853]
IC50 [3]: 341 nM | IC50 [4]: 638 nM

Cc1sc2c(c1C)C(c1ccc(Cl)cc1)=N[C@@H](CC(=O)OC(C)(C)C)c1nnc(C)n1-2 [JQ1, reference compound]
IC50 [6]: 61.9 nM | IC50 [7]: 130 nM | IC50 [8]: 130 nM | IC50 [9]: 29.8 nM

CNC(=O)[C@@H](CC1CCN(C(=O)Cc2ccc3[nH]c(=O)cc(C)c3c2)CC1)NC(=O)c1ccc(-c2ccc(Cl)cc2)cn1 [CDD-981]
IC50 ([1]; read-out: BRDT-BD2 IC50): 33800 nM | IC50 [2]: 19900 nM | EC50 ([6]; Homo sapiens, MV4-11): 58 nM | BRD4-BD1 vs. BRD4-BD2 fold (BRD4-BD1 selectivity) [3]: 1,553 fold | IC50 [3]: 12.8 nM | IC50 [4]: 5.1 nM | BRDT-BD1 vs. BRDT-BD2 fold (BRDT-BD1 selectivity) [4]: 6,633 fold

CNC(=O)C(CC1CCN(C(=O)Cc2ccc3[nH]c(=O)cc(C)c3c2)CC1)NC(=O)c1ccc(-c2ccc(C)cc2C)cn1 (stereo not drawn) [CDD-724]
IC50 ([1]; read-out: BRDT-BD2 IC50): 12800 nM | IC50 [2]: 34300 nM | BRD4-BD1 vs. BRD4-BD2 fold (BRD4-BD1 selectivity) [3]: 4035 fold | IC50 [3]: 8.5 nM | IC50 [4]: 5.7 nM | BRDT-BD1 vs. BRDT-BD2 fold (BRDT-BD1 selectivity) [4]: 2,246 fold and > 2,000 fold

CNC(=O)C(CC1CCN(C(=O)Cc2ccc3[nH]c(=O)ccc3c2)CC1)NC(=O)c1ccc(-c2ccccc2)cn1 (stereo not drawn) [CDD-986]
IC50 [1, 17]: 20900 nM | IC50 [2, 18]: 16700 nM | EC50 [6]: 143 nM | fold loss of selectivity over BRD4-BD2 ([3]; AlphaScreen): 1.6 fold | BRD4-BD1 vs. BRD4-BD2 fold (BRD4-BD1 selectivity) [3]: 2,352 fold | BRDT-BD1 vs. BRDT-BD2 fold (BRDT-BD1 selectivity) [4]: 3,875 fold

CNC(=O)[C@@H](CC1CCN(C(=O)Cc2ccc3[nH]c(=O)cc(C)c3c2)CC1)NC(=O)c1ccc(-c2ccc(Cl)c(F)c2)cn1 [CDD-982]
IC50 ([1]; read-out: BRDT-BD2 IC50): 22600 nM | IC50 [2]: 14000 nM | EC50 ([6]; Homo sapiens, MV4-11): 100 nM | BRD4-BD1 vs. BRD4-BD2 fold (BRD4-BD1 selectivity) [3]: 1,423 fold | IC50 [3]: 9.8 nM | IC50 [4]: 4.7 nM | BRDT-BD1 vs. BRDT-BD2 fold (BRDT-BD1 selectivity) [4]: 4,799 fold

Cc1cc(=O)[nH]c2ccc(CC(=O)N3CCC(CCNC(=O)c4ccccn4)CC3)cc12 [CDD-767]
IC50 ([1]; read-out: BRDT-BD2 IC50): 6800 nM | IC50 [2]: 75200 nM | BRD4-BD1 vs. BRD4-BD2 fold (BRD4-BD1 selectivity) [3]: 5,449 fold | IC50 [3]: 13.8 nM | IC50 [4]: 35.4 nM | BRDT-BD1 vs. BRDT-BD2 fold (BRDT-BD1 selectivity) [4]: 192 fold

CNC(=O)[C@H](CC1CCN(C(=O)Cc2ccc3[nH]c(=O)cc(C)c3c2)CC1)NC(=O)c1ccc(-c2ccc(C)cc2C)cn1 [CDD-786]
IC50 ([1]; read-out: BRDT-BD2 IC50): 6300 nM | IC50 [2]: 6100 nM | IC50 ([6]; Homo sapiens, MV4-11): 853 nM | IC50 ([7]; Homo sapiens, MOLM-13): 729 nM | IC50 ([8]; Homo sapiens, THP-1): 1200 nM | IC50 ([9]; Homo sapiens, Kasumi 1): 262 nM | BRD4-BD1 vs. BRD4-BD2 fold (BRD4-BD1 selectivity) [3]: 275 fold | IC50 [3]: 22.2 nM | IC50 [4]: 96.6 nM | BRDT-BD1 vs. BRDT-BD2 fold (BRDT-BD1 selectivity) [4]: 65 fold

Cc1cc(=O)[nH]c2ccc(CC(=O)N3CCC(CCNC(=O)c4cc5ccccc5cn4)CC3)cc12 [CDD-854]
IC50 [3, 19]: 119 nM | IC50 [4, 19]: 116 nM

Cc1nnc2n1-c1ccc(Cl)cc1C(c1ccccc1)=NC2 [Alprazolam, reference compound]
half-life at 2 μM [10]: 5.03 h | half-life at 2 μM [11]: 14.4 h

CNC(=O)[C@@H](CC1CCN(C(=O)Cc2ccc3[nH]c(=O)cc(C)c3c2)CC1)NC(=O)c1ccc(-c2ccccc2)cn1 [CDD-956]
half-life at 2 μM [10]: 0.583 h | Effect on the cell cycle, MV4;11 [12]: G1 arrest | Induction of apoptosis (Annexin V+ cells), MV4;11 [13]: apoptosis | Induction of apoptosis (Annexin V+ cells), MOLM-13 [14]: apoptosis | MYC expression, MOLM-13 [15]: suppressed | MYC expression, MV4;11 [16]: suppressed
